As a reminder, the MIC is the lowest concentration that inhibits growth of the organism. Read a low MIC as inhibition by little substance.

The structures appear in SMILES notation. Values after ≈ are worked out from the molar mass of the structure shown.

From article PMC7721803, “Development of a penem antibiotic against Mycobacteroides abscessus” (Communications Biology, 2020) come the findings set out here.

For the test, the system named is Mycobacterium tuberculosis reference strain H37Rv. Description: MIC by broth dilution method. Type of test: cell-based. Particulars: 336 h, 37 °C, 14 days. How it is done: MIC of each drug against M. abscessus was determined using the broth dilution method[27] in accordance with CLSI guidelines specific for this organism, except that Middlebrook 7H9 broth was used instead of cation-adjusted Mueller–Hinton broth. Powdered drug stocks were reconstituted in dimethyl sulfoxide and twofold serial dilutions were prepared in Middlebrook 7H9 broth to obtain final drug concentrations ranging from 512 to 0.5 µg/mL in 96-well plates. 10^5 colony forming units (CFU)/mL of M. abscessus from an exponentially growing culture were added to each well. M. abscessus cultured without drug and 7H9 broth alone were included in each plate as positive and negative controls, respectively. […] Growth of M. abscessus or lack thereof was assessed by visual inspection and an MIC for each drug was recorded as the lowest concentration at which M. abscessus growth was not observed. Results are reported as medians determined from three independent biological replicates. […] Middlebrook 7H9 broth was used for this assay and growth or lack thereof of M. tuberculosis was assessed after incubation at 37 °C for 14 days.

In the case of `C[C@@H](O)C1C(=O)N2C(C(=O)O)=C(SC3CN(C4=NCCS4)C3)SC12` (stereo in doubt) [T405], the MIC was in the range of 0.5 to 1 mg/L (≈ 1.29 to 2.58 µM).
